Literature values as cited in publication PMC9516332 (Frontiers in Oncology, 2022).
Where two headings read alike, the source gives them in different places.

Columns and labels:
Conditions in all cases: cited from earlier work
[1] = target: T1, panel of 255 wild-type kinases (Homo sapiens, UniProt Q96BR1)
T1 sequence (Q96BR1 1-496): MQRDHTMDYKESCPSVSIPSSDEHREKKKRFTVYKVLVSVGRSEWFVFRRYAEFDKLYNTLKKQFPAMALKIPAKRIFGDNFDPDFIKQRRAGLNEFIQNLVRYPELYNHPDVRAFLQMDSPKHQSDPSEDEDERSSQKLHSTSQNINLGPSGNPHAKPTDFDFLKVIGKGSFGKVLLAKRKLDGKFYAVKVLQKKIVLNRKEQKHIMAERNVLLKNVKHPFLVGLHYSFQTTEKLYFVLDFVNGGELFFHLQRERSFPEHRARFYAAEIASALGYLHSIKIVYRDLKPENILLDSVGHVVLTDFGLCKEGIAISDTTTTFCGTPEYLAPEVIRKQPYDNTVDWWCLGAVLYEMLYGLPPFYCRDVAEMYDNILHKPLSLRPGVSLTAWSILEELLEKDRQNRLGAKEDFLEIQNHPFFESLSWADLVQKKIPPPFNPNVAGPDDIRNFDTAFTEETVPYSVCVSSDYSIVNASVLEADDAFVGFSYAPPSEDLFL

[2] = target: T2, panel of 255 wild-type kinases (Homo sapiens, UniProt P52333)
T2 sequence (P52333 1-1124): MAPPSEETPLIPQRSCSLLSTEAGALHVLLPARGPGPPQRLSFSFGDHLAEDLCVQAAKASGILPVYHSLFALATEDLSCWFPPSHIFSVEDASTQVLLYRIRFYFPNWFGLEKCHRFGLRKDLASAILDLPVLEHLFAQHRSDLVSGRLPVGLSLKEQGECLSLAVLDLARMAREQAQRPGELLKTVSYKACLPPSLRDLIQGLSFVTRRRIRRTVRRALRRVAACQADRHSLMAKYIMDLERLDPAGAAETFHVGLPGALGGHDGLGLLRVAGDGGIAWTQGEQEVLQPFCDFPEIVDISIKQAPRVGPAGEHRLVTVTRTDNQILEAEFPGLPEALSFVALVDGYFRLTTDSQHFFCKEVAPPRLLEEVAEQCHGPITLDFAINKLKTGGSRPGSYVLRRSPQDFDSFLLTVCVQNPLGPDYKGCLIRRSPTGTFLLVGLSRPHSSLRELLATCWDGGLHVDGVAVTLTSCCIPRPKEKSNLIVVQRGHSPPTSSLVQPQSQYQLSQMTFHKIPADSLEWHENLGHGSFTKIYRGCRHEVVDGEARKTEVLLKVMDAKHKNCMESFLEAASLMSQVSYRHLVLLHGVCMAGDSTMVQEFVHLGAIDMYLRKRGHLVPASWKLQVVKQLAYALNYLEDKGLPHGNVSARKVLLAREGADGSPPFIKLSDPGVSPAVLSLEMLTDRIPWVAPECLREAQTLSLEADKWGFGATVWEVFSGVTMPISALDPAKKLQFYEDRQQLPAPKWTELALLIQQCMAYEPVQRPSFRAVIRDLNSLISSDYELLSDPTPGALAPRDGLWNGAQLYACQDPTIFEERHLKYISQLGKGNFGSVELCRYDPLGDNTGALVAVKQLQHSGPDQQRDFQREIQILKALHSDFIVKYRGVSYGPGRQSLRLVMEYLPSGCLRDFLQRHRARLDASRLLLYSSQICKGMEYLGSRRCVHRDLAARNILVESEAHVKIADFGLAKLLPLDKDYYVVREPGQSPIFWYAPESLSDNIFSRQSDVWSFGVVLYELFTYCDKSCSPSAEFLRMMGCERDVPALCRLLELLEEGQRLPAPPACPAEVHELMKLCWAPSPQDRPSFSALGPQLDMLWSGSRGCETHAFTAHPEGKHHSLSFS

[3] = target: T3, panel of 255 wild-type kinases (Homo sapiens, UniProt Q96L34)
T3 sequence (Q96L34 1-752): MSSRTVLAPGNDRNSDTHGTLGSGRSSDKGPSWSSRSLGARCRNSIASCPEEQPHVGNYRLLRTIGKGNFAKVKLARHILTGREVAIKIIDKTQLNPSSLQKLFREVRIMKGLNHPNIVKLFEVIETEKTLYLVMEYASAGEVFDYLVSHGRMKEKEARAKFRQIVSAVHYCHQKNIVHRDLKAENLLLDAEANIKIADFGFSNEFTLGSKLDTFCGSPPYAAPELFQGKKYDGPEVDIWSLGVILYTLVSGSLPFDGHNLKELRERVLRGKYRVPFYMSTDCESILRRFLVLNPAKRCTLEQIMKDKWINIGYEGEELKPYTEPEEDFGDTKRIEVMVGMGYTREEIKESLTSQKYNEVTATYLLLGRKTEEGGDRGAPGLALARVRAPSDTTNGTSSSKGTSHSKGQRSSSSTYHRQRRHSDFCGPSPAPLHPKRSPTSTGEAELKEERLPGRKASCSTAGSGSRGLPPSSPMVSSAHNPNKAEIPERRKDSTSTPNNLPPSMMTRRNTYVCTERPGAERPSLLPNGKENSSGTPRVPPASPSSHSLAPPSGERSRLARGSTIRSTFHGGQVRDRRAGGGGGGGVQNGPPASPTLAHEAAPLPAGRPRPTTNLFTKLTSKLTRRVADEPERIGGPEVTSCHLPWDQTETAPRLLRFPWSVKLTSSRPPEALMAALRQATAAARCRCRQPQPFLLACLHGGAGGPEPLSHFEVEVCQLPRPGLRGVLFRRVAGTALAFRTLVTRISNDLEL

[4] = kinase SGK3, 1 µmol/L single concentration, ref DOI: 10.1158/1535-7163.MCT-18-0877
[5] = kinase JAK3, 1 µmol/L single concentration, ref DOI: 10.1158/1535-7163.MCT-18-0877
[6] = MARK4, 1 µmol/L single concentration, ref DOI: 10.1158/1535-7163.MCT-18-0877
[7] = kinase SGK3, 1 µmol/L single concentration, ref DOI: 10.1371/journal.pone.0092146
[8] = kinase JAK3, 1 µmol/L single concentration, ref DOI: 10.1371/journal.pone.0092146
[9] = MARK4, 1 µmol/L single concentration, ref DOI: 10.1371/journal.pone.0092146

SMILES: CC#CC(=O)N1CCC[C@H]1c1nc(-c2ccc(C(=O)Nc3ccccn3)cc2)c2c(N)nccn12 [acalabrutinib]
- %-inhibition at 1 µmol/L, SGK3 [1, 4]: -12%
- %-inhibition at 1 µmol/L, JAK3 [2, 5]: -1%
- %-inhibition, MARK4 [3, 6]: -15%

SMILES: CCc1cc2c(cc1N1CCC(N3CCOCC3)CC1)C(C)(C)c1[nH]c3cc(C#N)ccc3c1C2=O [alectinib]
- %-inhibition at 1 µmol/L, SGK3 [1, 4]: 1.51%
- %-inhibition at 1 µmol/L, JAK3 [2, 5]: 5.58%
- %-inhibition, MARK4 [3, 6]: -3%

SMILES: COc1cc(N2CCC(N3CCN(C)CC3)CC2)ccc1Nc1ncc(Cl)c(Nc2ccccc2P(C)(C)=O)n1 [brigatinib]
- %-inhibition at 1 µmol/L, SGK3 [1]: -2.26%
- %-inhibition at 1 µmol/L, JAK3 [2]: 97%
- %-inhibition, MARK4 [3]: 101%

SMILES: Cc1cc(Nc2ncc(Cl)c(Nc3ccccc3S(=O)(=O)C(C)C)n2)c(OC(C)C)cc1C1CCNCC1 [ceritinib]
- %-inhibition at 1 µmol/L, SGK3 [1, 4]: -0.738%
- %-inhibition at 1 µmol/L, JAK3 [2, 5]: 2.84%
- %-inhibition, MARK4 [3, 6]: -2.63%

SMILES: O=C(c1ccc(F)c(F)c1Nc1ccc(I)cc1F)N1CC(O)([C@@H]2CCCCN2)C1 [cobimetinib]
- %-inhibition at 1 µmol/L, SGK3 [1, 4]: -4%
- %-inhibition at 1 µmol/L, JAK3 [2, 5]: -3.25%
- %-inhibition, MARK4 [3, 6]: -15%

SMILES: C[C@@H](Oc1cc(-c2cnn(C3CCNCC3)c2)cnc1N)c1c(Cl)ccc(F)c1Cl [crizotinib]
- %-inhibition at 1 µmol/L, SGK3 [1, 7]: -3%
- %-inhibition at 1 µmol/L, JAK3 [2, 8]: 77%
- %-inhibition, MARK4 [3, 9]: 51%

SMILES: CC(C)(C)c1nc(-c2cccc(NS(=O)(=O)c3c(F)cccc3F)c2F)c(-c2ccnc(N)n2)s1 [dabrafenib]
- %-inhibition at 1 µmol/L, SGK3 [1, 7]: 0.0854%
- %-inhibition at 1 µmol/L, JAK3 [2, 8]: 22%
- %-inhibition, MARK4 [3, 9]: -27%

SMILES: C=CC(=O)N1CCC[C@@H](n2nc(-c3ccc(Oc4ccccc4)cc3)c3c(N)ncnc32)C1 [ibrutinib]
- %-inhibition at 1 µmol/L, SGK3 [1, 4]: 0.579%
- %-inhibition at 1 µmol/L, JAK3 [2, 5]: 91%
- %-inhibition, MARK4 [3, 6]: -14%

SMILES: CO[C@@H]1[C@H](N(C)C(=O)c2ccccc2)C[C@H]2O[C@]1(C)n1c3ccccc3c3c4c(c5c6ccccc6n2c5c31)C(=O)NC4 [midostaurin]
- %-inhibition at 1 µmol/L, SGK3 [1, 4]: 16%
- %-inhibition at 1 µmol/L, JAK3 [2, 5]: 100%
- %-inhibition, MARK4 [3, 6]: 101%

SMILES: C=CC(=O)Nc1cc(Nc2nccc(-c3cn(C)c4ccccc34)n2)c(OC)cc1N(C)CCN(C)C [osimertinib]
- %-inhibition at 1 µmol/L, SGK3 [1, 4]: 3.6%
- %-inhibition at 1 µmol/L, JAK3 [2, 5]: 97%
- %-inhibition, MARK4 [3, 6]: -13%

SMILES: CC(=O)Nc1cccc(-n2c(=O)n(C3CC3)c(=O)c3c(Nc4ccc(I)cc4F)n(C)c(=O)c(C)c32)c1 [trametinib]
- %-inhibition at 1 µmol/L, SGK3 [1, 7]: 0.769%
- %-inhibition at 1 µmol/L, JAK3 [2, 8]: 6%
- %-inhibition, MARK4 [3, 9]: -15%

SMILES: CCCS(=O)(=O)Nc1ccc(F)c(C(=O)c2c[nH]c3ncc(-c4ccc(Cl)cc4)cc23)c1F [vemurafenib]
- %-inhibition at 1 µmol/L, SGK3 [1, 7]: -2.38%
- %-inhibition at 1 µmol/L, JAK3 [2, 8]: 10%
- %-inhibition, MARK4 [3, 9]: 3.78%
